Test results as given in US7388022B2, “Polysubstituted 1,1-pyridylaminocyclopropanamine compounds” (priority 2005, dated 2008).
Where a name gives a salt, the structure may show the parent alone. Read-outs that look alike come from different tables or passages of the source.

Tests used:
[1] = system: release of acetylcholine in the prefrontal cortex; experiment: In vivo measurement of the release of acetylcholine by intra-cortical microdialysis in the conscious Wistar rat; design: dose or concentration left out as unconfirmed; settings: one hour after administration
Method: The systemic administration of nicotine and nicotinic agonists causes an increase, in vivo, of acetylcholine in various regions of the brain (Neurochem. Res., 1996, 21, 1181-1186; Eur. J. Pharmacol., 1998, 351, 181-188; Br. J. Pharmacol., 1999, 127, 1486-1494). A microdialysis probe is implanted in the median prefrontal cortex of male Wistar rats. Six or seven days after they have been implanted, the probes are perfused with Ringer's solution (NaCl 147 mM, KCl 2.7 mM, CaCl2 1.2 mM, MgCl2 1 mM, neostigmine 20 nM) at a flow rate of 1 μl/min, the animal being free to move. After 2 hours in the animal quarters, the product under test is administered by the intraperitoneal route. A group of control animals receives the solvent used for the product. The dialysates (30 μl) are then collected every 30 minutes for 4 hours in order to measure the cortical extra-synaptic concentrations of acetylcholine by means of HPLC with amperometric detection. The results are expressed in pg of acetylcholine/dialysate, and inter-group comparisons are carried out by means of variance analysis using 2 factors (treatment×time), with measurements being repeated over time.

[2] = system: object recognition (memorisation); experiment: Object recognition in the Wistar rat; format: in vivo; settings: 0.3 mg/kg PO, 2nd session 24 hours later
From the text: The object recognition test in the Wistar rat (Behav. Brain Res., 1988, 31, 47-59) is based on the spontaneous exploratory activity of the animal and has the characteristics of episodic memory in humans. Sensitive to ageing (Eur. J. Pharmacol., 1997, 325, 173-180), as well as to cholinergic dysfunctions (Pharm. Biochem. Behav., 1996, 5(2), 277-283), this memory test is based on the differential exploration of 2 objects of fairly similar size, one familiar and the other new. Before the test, the animals are accustomed to the environment (enclosure without object). During a 1st session, the rats are placed (for 3 minutes) in an enclosure containing 2 identical objects. The duration of exploration of each object is measured. During the second session (3 minutes), 24 hours later, 1 of the 2 objects is replaced by a new object. The duration of exploration of each object is measured. The assessment criterion is the difference Delta, expressed in seconds, between the exploration times of the new object and the familiar object during the 2nd session.

[3] = system: social recognition (memorisation); experiment: Social recognition in the Wistar rat; format: in vivo; settings: 3 mg/kg IP, 2 hours after administration
From the text: Initially described in 1982 (J. Comp. Physiol., 1982, 96, 1000-1006), the social recognition test has subsequently been proposed by various authors (Psychopharmacology, 1987, 91, 363-368; Psychopharmacology, 1989, 97, 262-268) for studying the mnemocognitive effects of new compounds. The test is based on the natural expression of the olfactory memory of the rat and its natural tendency to forget and allows evaluation of memorisation, by recognition of a young congeneric animal, by an adult rat. A young rat (21 days), taken at random, is placed for 5 minutes in the cage housing an adult rat. With the aid of a video device, the experimenter observes the social recognition behaviour of the adult rat and measures its overall duration. The young rat is then removed from the adult rat's cage and is placed in its own cage until the second introduction. The adult rat is given the compound under test by the intraperitoneal route and, after 2 hours, is again brought into the presence (5 minutes) of the young rat. The social recognition behaviour is then observed again and its duration measured. The assessment criterion is the difference (T2−T1), expressed in seconds, between the “recognition” times of the 2 encounters.

[4] = molecular target: T1, type α4β2 central nicotinic receptors (Rattus norvegicus, UniProt P09483+P12390); experiment: Displacement of binding of [3H]-cytisine on type α4β2 nicotinic receptors of rat brain
T1 construct: from tissue; host or cells: rat brain membranes
Method: This study, carried out according to the technique described in Molec. Pharmacol., 1990, 39; 9-12, is aimed at determining the affinity of compounds of the present invention for type α4β2 central nicotinic receptors.
Membranes (250 μg/ml) of rat brain are incubated (2 hours, 20° C.) in the presence of a series of concentrations (0.01-10 μM) of each compound of the present invention (diluted starting from a 10 mM stock solution in DMSO) and [^3H]-cytisine (S.A.: 1184 GBq/mmol: 2 nM) in phosphate buffer (NaH2PO4 20 mM, pH 7.4); final volume: 250 μl. The non-specific binding is determined by incubating membranes in the presence of 10 μM of (−)nicotine. The affinity of the compounds of the present invention for type α4β2 central nicotinic receptors is characterised by determination of the Ki.

[5] = system: abdominal cramps caused by PBQ; experiment: Abdominal contractions induced by phenyl-p-benzoquinone (PBQ) in the NMRI mouse; format: in vivo; settings: 10 mg/kg IP
Method: Intraperitoneal administration of an alcoholic solution of PBQ causes abdominal cramps in the mouse (Proc. Soc. Exp. Biol., 1957, 95, 729-731). The cramps are characterised by repeated contractions of the abdominal musculature, accompanied by extension of the hind limbs. Most analgesics antagonise these abdominal cramps (Brit. J. Pharmacol. Chem., 1968, 32, 295-310). At t=0 min., the animals are weighed and the compound being studied is administered by the IP route. A group of control animals is given the solvent used for the compound. At t=30 min., an alcoholic solution of PBQ (0.2%) is administered by the IP route in a volume of 0.25 ml/mouse. Immediately after administration of the PBQ, the animals are placed in cylinders of plexiglass (L=19.5 cm; I.D.=5 cm). From t=35 min. to t=45 min., the animals' reaction is observed and the experimenter notes the total number of abdominal cramps per animal. The results are expressed as the percentage inhibition of the number of abdominal cramps measured in the control animals, at the active dose of the compound studied.

[6] = molecular target: type α7 central nicotinic receptors (Rattus norvegicus, UniProt Q05941); experiment: biochemical; format: binding
Chain of type α7 central nicotinic receptors (Q05941 23-502): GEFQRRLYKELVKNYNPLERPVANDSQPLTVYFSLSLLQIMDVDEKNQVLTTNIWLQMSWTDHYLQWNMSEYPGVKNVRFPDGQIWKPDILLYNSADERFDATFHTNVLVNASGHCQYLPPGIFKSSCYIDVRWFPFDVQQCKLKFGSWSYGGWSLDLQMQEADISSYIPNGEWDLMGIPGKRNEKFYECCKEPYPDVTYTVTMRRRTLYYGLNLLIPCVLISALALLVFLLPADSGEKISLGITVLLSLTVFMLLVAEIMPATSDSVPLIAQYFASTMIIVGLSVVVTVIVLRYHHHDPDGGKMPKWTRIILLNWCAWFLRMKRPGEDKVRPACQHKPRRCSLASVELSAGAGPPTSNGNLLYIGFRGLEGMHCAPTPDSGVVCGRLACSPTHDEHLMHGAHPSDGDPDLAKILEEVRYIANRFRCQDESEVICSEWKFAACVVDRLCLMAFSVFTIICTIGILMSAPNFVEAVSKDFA

T1 sequence (P09483 31-630): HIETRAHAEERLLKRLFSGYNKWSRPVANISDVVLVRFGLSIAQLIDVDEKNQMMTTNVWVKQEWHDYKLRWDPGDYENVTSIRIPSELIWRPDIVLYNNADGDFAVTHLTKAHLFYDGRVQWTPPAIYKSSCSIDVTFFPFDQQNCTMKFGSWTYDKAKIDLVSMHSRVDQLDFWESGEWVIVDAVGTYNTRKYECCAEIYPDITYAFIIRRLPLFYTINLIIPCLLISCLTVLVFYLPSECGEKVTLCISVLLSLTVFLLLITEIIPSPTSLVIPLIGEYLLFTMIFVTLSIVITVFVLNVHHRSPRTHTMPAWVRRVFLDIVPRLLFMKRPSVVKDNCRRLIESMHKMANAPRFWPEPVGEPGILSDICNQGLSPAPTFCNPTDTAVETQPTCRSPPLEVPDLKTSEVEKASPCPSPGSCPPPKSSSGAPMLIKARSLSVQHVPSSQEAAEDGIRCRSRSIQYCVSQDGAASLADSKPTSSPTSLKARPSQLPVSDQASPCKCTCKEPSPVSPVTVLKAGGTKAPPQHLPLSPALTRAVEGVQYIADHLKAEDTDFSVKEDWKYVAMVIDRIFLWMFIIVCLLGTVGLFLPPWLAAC
T1 sequence (P12390 25-500): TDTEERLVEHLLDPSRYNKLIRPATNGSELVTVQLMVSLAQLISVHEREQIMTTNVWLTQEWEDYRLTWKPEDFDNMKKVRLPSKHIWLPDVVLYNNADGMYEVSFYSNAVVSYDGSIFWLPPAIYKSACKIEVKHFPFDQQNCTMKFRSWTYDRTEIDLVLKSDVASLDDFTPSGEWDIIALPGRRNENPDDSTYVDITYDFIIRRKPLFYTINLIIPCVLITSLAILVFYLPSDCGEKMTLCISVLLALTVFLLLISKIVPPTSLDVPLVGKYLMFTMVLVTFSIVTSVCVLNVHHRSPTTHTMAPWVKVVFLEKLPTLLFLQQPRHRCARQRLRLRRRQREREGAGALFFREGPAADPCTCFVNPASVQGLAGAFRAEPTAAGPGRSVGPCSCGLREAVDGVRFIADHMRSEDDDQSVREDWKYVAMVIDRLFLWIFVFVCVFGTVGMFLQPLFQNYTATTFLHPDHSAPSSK

CNC1(CNc2cccnc2)CC1.Cl.Cl [Example 1, N-{[1-(Methylamino)cyclopropyl]methyl}pyridin-3-amine dihydrochloride]
increase in the release of acetylcholine in the prefrontal cortex [1]: +70% | difference Delta between exploration times of new and familiar object [2]: 9 s | difference (T2−T1) between recognition times [3]: 36 s | Ki [4]: 34 nM | reduction of the number of abdominal cramps caused by PBQ [5]: −50% | melting point: 190 to 195 °C

CN(CC1(N)CC1)c1cccnc1.Cl.Cl
melting point: 218 to 222 °C

Cl.Cl.NC1(CNc2cccnc2)CC1 [Example 4, N-[(1-Aminocyclopropyl)methyl]pyridin-3-amine dihydrochloride]
difference (T2−T1) between recognition times [3]: 19 s | melting point: 195 to 199 °C

CN(CC1(N(C)C)CC1)c1ccc(Cl)nc1.Cl.Cl
melting point: 163 to 166 °C

CN(C)C1(CNc2ccc(Cl)nc2)CC1.Cl.Cl
melting point: 158 to 160 °C

CNC1(CN(C)c2ccc(Br)nc2)CC1.O=C(O)/C=C/C(=O)O
melting point: 146 to 150 °C

CN(C)C1(CN(Cc2ccccc2)c2ccc(Cl)nc2)CC1.Cl
melting point: 190 to 192 °C

CN(C)C1(CNc2cccnc2)CC1.Cl.Cl
melting point: 208 to 210 °C

CNC1(CN(C)c2cccnc2)CC1.Cl.Cl [Example 2, N-Methyl-N-{[1-(methylamino)cyclopropyl]methyl}pyridin-3-amine dihydrochloride]
increase in the release of acetylcholine in the prefrontal cortex [1]: +80% | difference Delta between exploration times of new and familiar object [2]: 4 s | difference (T2−T1) between recognition times [3]: 29 s | Ki [6]: 8300 nM | Ki [4]: 15 nM | reduction of the number of abdominal cramps caused by PBQ [5]: −76% | melting point: 180 to 184 °C

CN(CC1(N(C)C)CC1)c1cccnc1.Cl.Cl
melting point: 198 to 201 °C

CNC1(CN(Cc2ccccc2)c2ccc(Cl)nc2)CC1.Cl.Cl
melting point: 156 to 157 °C

CNC1(CN(C)c2ccc(C)nc2)CC1.Cl.Cl
melting point: 112 to 115 °C

CNC1(CNc2ccc(Cl)nc2)CC1.Cl.Cl [Example 9]
reduction of the number of abdominal cramps caused by PBQ [5]: −52%

CNC1(CN(C)c2ccc(Cl)nc2)CC1 (as salt: hydrochloride) [Example 10, 6-Chloro-N-methyl-N-{[1-(methylamino)cyclopropyl)methylpyridin-3-aminedihydrochloride]
melting point: 133 to 136 °C

CNC1(CN(C)c2ccc(Cl)nc2)CC1 [Example 10, 6-Chloro-N-methyl-N-{[1-(methylamino)cyclopropyl)methylpyridin-3-aminedihydrochloride]
Ki ([4]; [3H]-cytisine, rat brain membranes, read-out: Ki, type α4β2 central nicotinic receptors): 16 nM | reduction of the number of abdominal cramps caused by PBQ [5]: −69%

CNC1(CNc2ccc(C)nc2)CC1.Cl.Cl
melting point: 230 to 232 °C
